Reference: ChEMBL document CHEMBL5108067, “Discovery of Potent OTUB1/USP8 Dual Inhibitors Targeting Proteostasis in Non-Small-Cell Lung Cancer” (J Med Chem, 2022)
The source made the active and inactive calls. The rule behind the calls is not given here.

Assays:
[1] = Tmax in ICR mouse at 10 mg/kg, po measured upto 1440 mins by LC-MS/MS analysis; format: ADME, organism-based; details: in vivo
[2] = Oral bioavailability in ICR mouse at 10 mg/kg measured upto 1440 mins by LC-MS/MS analysis; format: ADME, organism-based; details: in vivo
[3] = Half life in ICR mouse at 1 mg/kg, iv measured upto 1440 mins by LC-MS/MS analysis; format: ADME, organism-based; details: in vivo, 24 h
[4] = Volume of distribution at steady state in ICR mouse at 1 mg/kg, iv measured upto 1440 mins by LC-MS/MS analysis; format: ADME, organism-based; details: in vivo, 24 h
[5] = AUC in ICR mouse at 1 mg/kg, iv measured upto 1440 mins by LC-MS/MS analysis; format: ADME, organism-based; parameters: time < 1440 min, dose 1 mg/kg, route iv; details: in vivo, 24 h
[6] = Half life in ICR mouse at 10 mg/kg, po measured upto 1440 mins by LC-MS/MS analysis; format: ADME, organism-based; details: in vivo
[7] = biological target: T1, Ubiquitin thioesterase OTUB1 (Homo sapiens, UniProt Q96FW1); test: Inhibition of OTUB1 in human NCI-H1975 cells assessed as reduction in protein level at 500 nM measured for 24 hrs by immunoblotting analysis; format: cell-based
NCI-H1975 [8] = test: Antitumor activity against human NCI-H1975 cells xenografted in BALB/c nude mouse model assessed as reduction of tumor burden at 5 mg/kg, ip qd for 2 weeks; format: functional, organism-based
[9] = biological target: T2, Ubiquitin carboxyl-terminal hydrolase 8 (Homo sapiens) (UniProt P40818); test: Destabilization of N-terminal His-6 tagged USP8 (734 to 1110 residues) (unknown origin) expressed in Escherichia coli BL21 (DE3) cells assessed as change in melting temperature at 200 uM measured for 2 hrs in presence of dithiothreitol by SYPRO orange dye based thermal shift assay
T2 sequence (whole entry): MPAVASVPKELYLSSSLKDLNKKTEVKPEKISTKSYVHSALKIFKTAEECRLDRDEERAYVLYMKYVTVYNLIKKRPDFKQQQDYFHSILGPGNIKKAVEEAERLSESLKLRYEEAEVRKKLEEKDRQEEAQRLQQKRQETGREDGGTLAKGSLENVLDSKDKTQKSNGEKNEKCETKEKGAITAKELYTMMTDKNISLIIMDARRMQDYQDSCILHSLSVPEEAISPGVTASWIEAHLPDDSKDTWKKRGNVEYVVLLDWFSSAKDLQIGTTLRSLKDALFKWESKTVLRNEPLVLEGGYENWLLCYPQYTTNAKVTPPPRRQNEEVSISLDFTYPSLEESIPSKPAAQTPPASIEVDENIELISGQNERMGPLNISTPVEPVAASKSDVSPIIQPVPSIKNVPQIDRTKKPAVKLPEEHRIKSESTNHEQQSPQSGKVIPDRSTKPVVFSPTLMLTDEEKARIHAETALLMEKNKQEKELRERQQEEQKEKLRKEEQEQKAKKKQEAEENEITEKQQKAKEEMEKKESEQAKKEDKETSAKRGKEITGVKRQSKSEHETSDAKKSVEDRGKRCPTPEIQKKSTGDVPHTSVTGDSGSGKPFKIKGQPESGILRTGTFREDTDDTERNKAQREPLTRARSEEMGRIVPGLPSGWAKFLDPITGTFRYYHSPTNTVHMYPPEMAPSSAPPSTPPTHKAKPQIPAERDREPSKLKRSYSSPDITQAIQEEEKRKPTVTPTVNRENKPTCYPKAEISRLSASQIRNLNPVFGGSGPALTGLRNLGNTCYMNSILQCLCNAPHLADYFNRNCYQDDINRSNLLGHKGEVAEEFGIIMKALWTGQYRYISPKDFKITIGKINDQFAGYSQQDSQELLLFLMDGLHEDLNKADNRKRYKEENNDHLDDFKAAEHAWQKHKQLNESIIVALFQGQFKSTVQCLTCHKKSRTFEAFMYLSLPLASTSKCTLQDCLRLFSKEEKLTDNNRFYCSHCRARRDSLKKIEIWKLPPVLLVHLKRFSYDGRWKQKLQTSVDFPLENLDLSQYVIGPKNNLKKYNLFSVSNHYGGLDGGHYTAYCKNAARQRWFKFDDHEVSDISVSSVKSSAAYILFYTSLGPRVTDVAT

NCI-H1975 [10] = test: Antitumor activity against human NCI-H1975 cells xenografted in BALB/c nude mouse model assessed as reduction of total tumor weight at 5 mg/kg, ip bid for 2 weeks; format: functional, organism-based
Mus musculus [11] = test: In vivo inhibition of USP8 in NCI-H1975 cells xenografted BALB/c nude mouse model assessed as decrease in EGFR level at 15 mg/kg/day, po measured after 5 days by Western blot analysis; format: functional, organism-based; details: time 5.0 day
[12] = biological target: T2, Ubiquitin carboxyl-terminal hydrolase 8 (Homo sapiens); test: Inhibition of USP8 in human NCI-H1975 cells assessed as reduction in protein level at 500 nM measured for 24 hrs by immunoblotting analysis; format: cell-based
Mus musculus [13] = test: In vivo inhibition of OTUB1 in human NCI-H1975 cells xenografted BALB/c nude mouse model assessed as decrease in OTUB1 level at 15 mg/kg/day, po measured after 5 days by Western blot analysis; format: functional, organism-based; details: time 5.0 day
Mus musculus [14] = test: In vivo inhibition of USP8 in human NCI-H1975 cells xenografted BALB/c nude mouse model assessed as decrease in USP8 level at 15 mg/kg/day, po measured after 5 days by Western blot analysis; format: functional, organism-based; details: time 5.0 day
Mus musculus [15] = test: In vivo inhibition of OTUB1 in NCI-H1975 cells xenografted BALB/c nude mouse model assessed as decrease in UBE2N level at 15 mg/kg/day, po measured after 5 days by Western blot analysis; format: functional, organism-based; details: time 5.0 day
NCI-H1975 [16] = test: Antitumor activity against human NCI-H1975 cells xenografted in BALB/c nude mouse model assessed as reduction in tumor volume at 5 mg/kg, ip bid for 2 weeks; format: functional, organism-based
[17] = biological target: T1, Ubiquitin thioesterase OTUB1; test: Inhibition of N-terminal His-6 tagged OTUB1 (40 to 271 residues) (unknown origin) expressed in Escherichia coli BL21 (DE3) cells at […] using Ub-Rho measured after 0.5 to 3 hrs by fluorescence based Plate reader method relative to control; details: dose 2.5 µM, time 0.5-3 hrs

T1 sequence (Q96FW1 whole entry): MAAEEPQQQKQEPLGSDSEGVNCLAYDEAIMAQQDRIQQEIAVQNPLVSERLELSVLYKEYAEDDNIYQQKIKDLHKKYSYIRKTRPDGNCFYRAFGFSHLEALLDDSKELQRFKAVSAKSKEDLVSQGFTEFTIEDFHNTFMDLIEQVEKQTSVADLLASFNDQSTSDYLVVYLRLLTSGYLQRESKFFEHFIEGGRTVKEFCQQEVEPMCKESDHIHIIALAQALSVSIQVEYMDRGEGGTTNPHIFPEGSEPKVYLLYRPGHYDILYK

Row | SMILES | Tmax [1] [min] | bioavailability [2] [%] | t1/2 [3] [min] | Vdss [4] [L/kg] | AUC [5] [ng·h/mL] | half-life [6] [min] | inhibition [7] | Activity (NCI-H1975 [8]) | ΔTm [9] [°C] | Activity (NCI-H1975 [10]) | Activity (Mus musculus [11]) | inhibition [12] | Activity (Mus musculus [13]) | Activity (Mus musculus [14]) | Activity (Mus musculus [15]) | Activity (NCI-H1975 [16]) | inhibition [17] [%]
1 | CN1CC[C@@H](Oc2ccc(Cl)c(-c3nc4c(o3)C(=O)c3ccccc3C4=O)c2)C1 | 19.8 | 7.5 | 51.6 | 2.37 | 306 | 86.4 | – | – | – | – | – | – | – | – | – | – | –
2 | CN1CC[C@@H](Oc2ccc(F)c(-c3nc4c(o3)C(=O)c3ccccc3C4=O)c2Cl)C1 | 19.8 | 27.9 | 49.8 | 0.77 | 1345 | 105 | Active | Active | 2 | Active | Active | Active | Active | Active | Active | Active | –
3 | O=C1c2ccccc2C(=O)c2oc(-c3cccnc3)nc21 | – | – | – | – | – | – | – | – | – | – | – | – | – | – | – | – | 100
